From ChEMBL document CHEMBL5537214 (RSC Med Chem, 2024)

Biological target: Acetylcholinesterase (Homo sapiens, UniProt P22303)
Experiment: not given
Conditions: not given

Sequence of Acetylcholinesterase (Homo sapiens, UniProt P22303) (P22303 whole entry): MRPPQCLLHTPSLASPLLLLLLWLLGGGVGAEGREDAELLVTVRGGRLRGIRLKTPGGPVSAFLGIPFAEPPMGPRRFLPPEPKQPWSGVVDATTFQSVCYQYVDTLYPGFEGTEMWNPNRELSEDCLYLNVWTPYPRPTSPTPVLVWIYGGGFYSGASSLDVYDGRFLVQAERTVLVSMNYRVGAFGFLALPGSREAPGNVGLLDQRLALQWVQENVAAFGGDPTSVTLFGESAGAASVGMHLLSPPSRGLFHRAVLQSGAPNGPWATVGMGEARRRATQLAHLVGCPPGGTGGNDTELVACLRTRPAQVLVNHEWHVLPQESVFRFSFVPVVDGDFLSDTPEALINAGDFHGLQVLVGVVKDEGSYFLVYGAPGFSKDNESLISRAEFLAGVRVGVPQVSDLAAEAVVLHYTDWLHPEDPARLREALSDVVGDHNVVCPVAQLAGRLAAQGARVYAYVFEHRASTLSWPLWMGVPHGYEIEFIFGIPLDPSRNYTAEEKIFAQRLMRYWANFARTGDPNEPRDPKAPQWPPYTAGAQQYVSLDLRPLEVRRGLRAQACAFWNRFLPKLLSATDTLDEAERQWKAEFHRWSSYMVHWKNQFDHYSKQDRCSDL

Row | Structure (SMILES) | IC50 [µM]
1 | COc1cc(O)c(C(=O)Nc2nc(C(=O)NCCN(C(C)C)C(C)C)cs2)cc1OC [ACOTIAMIDE] | 3

Test system: not listed separately
Experiment: in vitro
Conditions: PAMPA

Row | Structure (SMILES) | Papp at 8 h [×10⁻⁶ cm/s]
2 | Nc1cccc(CN2CCC(CCN3C(=O)c4ccccc4C3=O)CC2)c1 | 2.9
3 | O=C1c2ccccc2C(=O)N1CC1CCN(Cc2ccccc2)CC1 | 10.7
4 | COc1cc2c(cc1OC)C(=O)C(CC1CCN(Cc3cccc(CN)c3)CC1)C2 (centres undefined) | 1.5
5 | NCc1cccc(CN2CCC(CCN3C(=O)c4ccccc4C3=O)CC2)c1 | 1.4
6 | COc1cc2c(cc1OC)C(=O)C(CC1CCN(Cc3cccc(N)c3)CC1)C2 (centres undefined) | 3.7
7 | Clc1cccc(Cl)c1N=C1NCCN1 [CLONIDINE] | 12.2
8 | NCCc1ccc(O)c(O)c1 [DOPAMINE] | 3.3

Test system: not listed separately
Experiment: Lipophilicity, log P of the compound
Type: physicochemical
Conditions: octanol/water

Row | Structure (SMILES) | logP
9 | COc1cc(O)c(C(=O)Nc2nc(C(=O)NCCN(C(C)C)C(C)C)cs2)cc1OC [ACOTIAMIDE] | < 2

Biological target: Acetylcholinesterase (Electrophorus electricus, UniProt O42275)
Sequence (O42275 whole entry): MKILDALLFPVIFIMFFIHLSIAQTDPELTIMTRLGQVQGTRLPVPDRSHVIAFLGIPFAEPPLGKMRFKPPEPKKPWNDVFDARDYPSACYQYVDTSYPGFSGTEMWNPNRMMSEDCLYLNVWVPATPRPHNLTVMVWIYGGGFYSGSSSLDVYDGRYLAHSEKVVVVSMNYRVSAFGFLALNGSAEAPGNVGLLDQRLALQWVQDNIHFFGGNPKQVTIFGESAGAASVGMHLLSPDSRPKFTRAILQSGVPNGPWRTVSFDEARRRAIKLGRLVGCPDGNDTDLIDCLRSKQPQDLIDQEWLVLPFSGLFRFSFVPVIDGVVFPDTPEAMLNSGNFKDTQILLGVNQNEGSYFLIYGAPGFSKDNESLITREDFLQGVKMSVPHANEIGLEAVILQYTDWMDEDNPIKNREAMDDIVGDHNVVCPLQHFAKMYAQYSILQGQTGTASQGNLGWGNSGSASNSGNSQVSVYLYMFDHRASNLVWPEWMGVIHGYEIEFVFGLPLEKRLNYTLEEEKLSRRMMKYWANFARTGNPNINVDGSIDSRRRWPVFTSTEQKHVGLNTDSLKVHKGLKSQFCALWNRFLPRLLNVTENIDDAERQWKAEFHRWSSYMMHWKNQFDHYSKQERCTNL
Experiment: Inhibition of electric eel AChE using acetylthiocholine iodide as substrate incubated for 15 mins by Ellman's method
Conditions: not given

Row | Structure (SMILES) | IC50 [µM]
10 | O=C1c2ccccc2C(=O)N1CCC1CCN(Cc2ccccc2)CC1 | 0.0132
11 | COc1cc2c(cc1OC)C(=O)C(CC1CCNCC1)C2 (centres undefined) | 9.45
12 | COc1cc2c(cc1OC)C(=O)C(CC1CCN(C(=O)c3ccccc3)CC1)C2 (centres undefined) | 17.9
13 | COc1cc2c(cc1OC)C(=O)C(CC1CCN(CCN)CC1)C2 (centres undefined) | 11.2
14 | Nc1ccc(CN2CCC(CCN3C(=O)c4ccccc4C3=O)CC2)cc1 | 0.327
15 | Nc1cccc(CN2CCC(CCN3C(=O)c4ccccc4C3=O)CC2)c1 | 0.15
16 | O=C1c2ccccc2C(=O)N1CC1CCN(Cc2ccccc2)CC1 | 22.8
17 | COc1cc2c(cc1OC)C(=O)C(CC1CCN(Cc3cccc(NC(=O)c4ccccc4)c3)CC1)C2 (centres undefined) | 22.8
18 | COc1cc2c(cc1OC)C(=O)C(CC1CCN(Cc3cccc(CN)c3)CC1)C2 (centres undefined) | 1.03
19 | COc1cc2c(cc1OC)C(=O)C(CC1CCN(CCCN)CC1)C2 (centres undefined) | 10.8
20 | COc1cc2c(cc1OC)C(=O)C(CC1CCN(CCCCN)CC1)C2 (centres undefined) | 14.6
21 | O=C(c1ccccc1)N1CCC(CCN2C(=O)c3ccccc3C2=O)CC1 | 63
22 | COc1cc2c(cc1OC)C(=O)C(CC1CCN(Cc3ccc(C(=O)O)cc3)CC1)C2 (centres undefined) | 72.2
23 | NCc1cccc(CN2CCC(CCN3C(=O)c4ccccc4C3=O)CC2)c1 | 0.299
24 | NCc1ccc(CN2CCC(CCN3C(=O)c4ccccc4C3=O)CC2)cc1 | 1.54
25 | COc1cc2c(cc1OC)C(=O)C(CC1CCN(Cc3ccc(N)cc3)CC1)C2 (centres undefined) | 0.0991
26 | COc1cc2c(cc1OC)C(=O)C(CC1CCN(Cc3ccc(CN)cc3)CC1)C2 (centres undefined) | 5.8
27 | Nc1ccc(CN2CCC(CN3C(=O)c4ccccc4C3=O)CC2)cc1 | 25.2
28 | COc1cc2c(cc1OC)C(=O)C(CC1CCN(Cc3cccc(N)c3)CC1)C2 (centres undefined) | 0.0473

Test system: not listed separately
Experiment: physchem
Conditions: octanol/water
Description: Lipophilicity, log D of compound

Row | Structure (SMILES) | logD
29 | COc1cc(O)c(C(=O)Nc2nc(C(=O)NCCN(C(C)C)C(C)C)cs2)cc1OC [ACOTIAMIDE] | 0.7
